Holding throughout (type): cell-based
In one assay the test system is BaF3_DTC. As to the kind of experiment: Cell growth inhibition assay (CellTiter-Glo), BaF3_DTC. To be noted: 72 h; Table 6; BaF3_DTC cells, three days, CellTiter-Glo; read-out: BaF3_DTC GI50. As to the method:
(§1) Cells were seeded in a 96-well plate (Corning 3610) with 90 μL of culture medium per well, and plates were incubated at 37° C. overnight. A 1,000× DMSO stock solution of the desired compound was prepared the following day. A compound dilution plate was prepared by diluting the stock solution 1:100 in the corresponding cell culture medium, 10 μL of the diluted compound solution was added to each 96-well plate well containing the seeded cells. […] The content of the wells was mixed by shaking continuously for 10 min, and luminescence was measured using Envision (PerkinElmer). The data were analyzed with GraphPad Prism 9 (see FIG. 50).
(§2) Table 6, Table 7, and Table 8 list the cell growth inhibition results, where Gls0 represents the compound concentration to cause 50% cell growth inhibition in comparison with DMSO.

Another assay deals with A431. In words: Cell growth inhibition assay (CellTiter-Glo), A431. The settings on record: Homo sapiens, A-431, 72 h, Table 6; A431 cells, three days, CellTiter-Glo; read-out: A431 GI50. As to the method:
as §1, §2
(In general: Cellular ATP, detected with luciferase, serves as a proxy for viable cell number.)

In assay [1] the test system is BaF3_DTC (EGFR_Exon19del/T790M/C797S). In words: EGFR degradation assay (western blot), BaF3_DTC cells. To be noted: BaF3_DTC cells (EGFR_Exon19del/T790M/C797S), compounds 24 h, western blot; read-out: BaF3_DTC DC50. As to the method:
(§3) A431 (EGFR_WT), NCl-H2073 (EGFR_WT), NCl-H292 (EGFR_WT), BaF3_YVAM (Her2_A775insYVAM), BaF3_SVD (EGFR_D770insSVD), BaF3_ASV (EGFR_A776inASV), or BaF3_DTC (EGFR_Exon19del/T790M/C797S) cells were seeded in a 24-well plate at a density of 4×10^5 cells per well for EGFR WT cells and 8× cells per well for EGFR or Her2 mutant cells, and the plates were incubated overnight. The cells were treated with the desired compounds for 24 h. The culture medium was removed, and 100 μL of RIPA buffer (Beyotime, P0013B) containing 1% Protease Inhibitor Cocktail (Bimake, B14001), 1% Phosphatase Inhibitor Cocktail 2 (Sigma, P5726), and 1% Phosphatase Inhibitor Cocktail 3 (Sigma, P0044) were added to lyse the cells. Then, the cell lysates were transferred to 1.5 mL microcentrifuge tubes and centrifuged at 12,000 rpm and 4° C. for 30 min. The supernatants were transferred into new tubes, and the protein concentration was determined using the BCA protein quantification method. All samples were diluted to the same concentration using RIPA buffer, loading buffer was added, samples were denatured, and 15 μg of protein per lane was loaded onto a SurePAGE 4-20% Bis-Tris gel. Samples were separated via electrophoresis in MOPS running buffer at 180 V for 100 min. Then, proteins were transferred onto PVDF membranes using the MiniBlot™ Electrophoretic Transfer Cell Device (Beyotime, E6050). The membrane was blocked using block buffer (LI-COR 927-60001) to prevent non-specific binding. The membrane was incubated with primary antibodies (1:500 dilution, EGFR-CST4405, 1:2000 dilution, Tubulin-ABclonal #AC021) at 4° C. overnight. The membrane was washed three times with 1× TBST buffer for 15 min each. The membrane was incubated with secondary antibodies IRDye 680RD Goat anti-Rabbit IgG Secondary Antibody (1:2000 dilution, LI-COR 926-68071) and IRDye 800CW Goat anti-Mouse IgG Secondary Antibody (1:2000 dilution, LI-COR 926-32210). Finally, the membrane was washed again with 1× TBST buffer 3 times. Fluorescence was detected using the Odyssey CLx Imaging System, and the data were analyzed with Empiria Studio Software and GraphPad Prism 9. Table 4 and Table 5 list the degradation results, where the degradation potency is represented by DC50, the concentration of compounds to cause the degradation of 50% of the corresponding proteins. FIGS. 45-49 show western blots illustrating the EGFR degradative activity of exemplary Compound of the present disclosure and a comparator Compound A in different cell lines 24 h after administration. The Compound referred herein as Compound A is disclosed in WO 2022/171123 A1 (see, compound 133, page 46; published Aug. 18, 2022). WO 2022/171123 A1 discloses phosphine oxide derived molecules with EGFR degradation activity.
A general note: A western blot detects proteins with antibodies after separation by electrophoresis.

For assay [2], the target named is T1, BaF3_ASV (EGFR_A776inASV) (Homo sapiens, UniProt P00533, DUP767-769).
T1 construct: expressed in transfected cells; host or cells: Ba/F3 (engineered)
T1 sequence (P00533 with tags, fused parts or gaps DUP767-769): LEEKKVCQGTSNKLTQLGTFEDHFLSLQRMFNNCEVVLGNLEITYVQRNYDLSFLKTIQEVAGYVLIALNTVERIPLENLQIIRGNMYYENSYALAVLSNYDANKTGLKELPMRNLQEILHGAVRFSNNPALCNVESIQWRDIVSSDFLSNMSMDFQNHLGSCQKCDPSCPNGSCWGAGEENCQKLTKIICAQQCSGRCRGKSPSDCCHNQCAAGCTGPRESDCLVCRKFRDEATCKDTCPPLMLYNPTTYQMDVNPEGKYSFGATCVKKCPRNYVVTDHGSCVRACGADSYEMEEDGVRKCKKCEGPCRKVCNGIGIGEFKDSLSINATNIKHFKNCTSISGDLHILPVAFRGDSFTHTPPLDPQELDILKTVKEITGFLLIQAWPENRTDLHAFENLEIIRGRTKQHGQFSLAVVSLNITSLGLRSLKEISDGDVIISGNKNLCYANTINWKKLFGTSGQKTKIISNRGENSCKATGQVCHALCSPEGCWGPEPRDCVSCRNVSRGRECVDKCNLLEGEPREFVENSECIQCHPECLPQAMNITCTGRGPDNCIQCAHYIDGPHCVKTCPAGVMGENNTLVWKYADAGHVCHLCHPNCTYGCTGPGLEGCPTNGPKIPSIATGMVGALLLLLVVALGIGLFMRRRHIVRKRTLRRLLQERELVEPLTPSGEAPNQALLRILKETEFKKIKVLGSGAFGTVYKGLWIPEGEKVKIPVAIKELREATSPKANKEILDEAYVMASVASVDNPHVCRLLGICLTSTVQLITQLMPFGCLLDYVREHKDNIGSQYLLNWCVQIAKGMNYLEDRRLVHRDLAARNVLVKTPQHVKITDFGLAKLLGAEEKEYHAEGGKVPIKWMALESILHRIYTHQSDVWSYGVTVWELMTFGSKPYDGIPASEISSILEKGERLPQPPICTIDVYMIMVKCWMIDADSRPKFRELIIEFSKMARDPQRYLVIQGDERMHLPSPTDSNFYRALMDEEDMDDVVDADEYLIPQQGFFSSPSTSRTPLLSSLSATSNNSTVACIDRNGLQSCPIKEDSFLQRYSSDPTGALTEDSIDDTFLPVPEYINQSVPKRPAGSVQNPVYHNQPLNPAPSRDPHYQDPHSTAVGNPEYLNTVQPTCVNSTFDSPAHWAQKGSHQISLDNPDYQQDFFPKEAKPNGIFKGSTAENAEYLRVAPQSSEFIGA
In words: EGFR degradation assay (western blot), BaF3_ASV cells. The settings on record: BaF3_ASV cells, compounds 24 h, western blot; read-out: BaF3_ASV DC50. As to the method: as §3

The subject of the next assay is BaF3_ASV. In words: Cell growth inhibition assay (CellTiter-Glo), BaF3_ASV. To be noted: 72 h; Table 6; BaF3_ASV cells, three days, CellTiter-Glo; read-out: BaF3_ASV GI50. As to the method: as §1, §2

Here are results for five molecules from US20250002473A1, “QUINOXALINE DERIVED SULFONAMIDES WITH EGFR DEGRADATION ACTIVITIES AND THEIR USES THEREOF” (Accutar Biotechnology Inc., priority 2023, published 2025).

Some results are limits rather than exact numbers.

Usually GI50 stands for the concentration at which growth is held to half of that of the control. As a reminder, the DC50 is the midpoint of the concentration-degradation curve. In the case of `CCc1cc(Nc2ncc(Br)c(Nc3ccc4nccnc4c3NS(C)(=O)=O)n2)c(OC)cc1N1CCC(N2CCC(CN3CCN(c4ccc5c(c4)CN([C@H]4CCC(=O)NC4=O)C5=O)CC3)CC2)CC1` [Compound 35, (S)-N-(6-((5-bromo-2-((4-(4-((4-(2-(2,6-dioxopiperidin-3-yl)-1-oxoisoindolin-5-yl)piperazin-1-yl)methyl) [1,4′-bipiperidin]-1′-yl)-5-ethyl-2-methoxyphenyl)amino)pyrimidin-4-yl)amino)quinoxalin-5-yl)methanesulfonamide], the GI50 in the assay on BaF3_DTC was 13.7 nM; in the assay with A431, greater than 1000 nM; in the assay with BaF3_ASV, 126 nM. The DC50 is 66 nM in assay [1] and 86.5 nM in assay [2].
For the molecule `CCc1cc(Nc2ncc(Br)c(Nc3ccc4nccnc4c3NS(C)(=O)=O)n2)c(OC)cc1N1CCC(CN2CCN(c3ccc4c(c3)CN([C@H]3CCC(=O)NC3=O)C4=O)CC2)CC1` [Compound 43, (S)-N-(6-((5-bromo-2-((4-(4-((4-(2-(2,6-dioxopiperidin-3-yl)-1-oxoisoindolin-5-yl)piperazin-1-yl)methyl)piperidin-1-yl)-5-ethyl-2-methoxyphenyl)amino)pyrimidin-4-yl)amino)quinoxalin-5-yl)methanesulfonamide], the GI50 with BaF3_DTC is 15 nM; in the assay with A431, greater than 1000 nM; with BaF3_ASV it was 119 nM. The DC50 in assay [1] came to 0.323 nM.
Regarding `COc1cc(N2CCC(N3CCN(CC4CCN(c5ccc6c(c5)CN(C5CCC(=O)NC5=O)C6=O)CC4)CC3)CC2)c(-c2cnn(C)c2)cc1Nc1ncc(Br)c(Nc2ccc3nccnc3c2NS(C)(=O)=O)n1` (stereo not shown) [Compound 32, N-(6-((5-bromo-2-((4-(4-(4-((1-(2-(2,6-dioxopiperidin-3-yl)-1-oxoisoindolin-5-yl)piperidin-4-yl)methyl)piperazin-1-yl)piperidin-1-yl)-2-methoxy-5-(1-methyl-1H-pyrazol-4-yl)phenyl)amino)pyrimidin-4-yl)amino)quinoxalin-5-yl)methanesulfonamide], the GI50 in the assay on BaF3_DTC is 10.9 nM; with A431, 214 nM; in the assay with BaF3_ASV, 35.6 nM. Also, the DC50 in assay [1] was 3.1 nM; in assay [2], 26 nM.
In the case of `CCc1cc(Nc2ncc(Br)c(Nc3ccc4nccnc4c3NS(C)(=O)=O)n2)c(OC)cc1N1CCC(N2CCN(CCN3CCN(c4ccc5c(c4)CN([C@H]4CCC(=O)NC4=O)C5=O)CC3)CC2)CC1` [Compound 39, (S)-N-(6-((5-bromo-2-((4-(4-(4-(2-(4-(2-(2,6-dioxopiperidin-3-yl)-1-oxoisoindolin-5-yl)piperazin-1-yl)ethyl)piperazin-1-yl)piperidin-1-yl)-5-ethyl-2-methoxyphenyl)amino)pyrimidin-4-yl)amino)quinoxalin-5-yl)methanesulfonamide], the values for the GI50 in the assay on BaF3_DTC, in the assay with A431 and in the assay on BaF3_ASV were 11.1 nM, 441 nM and 73.4 nM, respectively. Further, in assay [1], the DC50 came out at 3.13 nM.
Consider `CCc1cc(Nc2ncc(Br)c(Nc3ccc4nccnc4c3NS(C)(=O)=O)n2)c(OC)cc1N1CCC(N2CCN(CC3CC4(CCN(c5ccc6c(c5)CN(C5CCC(=O)NC5=O)C6=O)CC4)C3)CC2)CC1` (stereo not shown) [Compound 47, N-(6-((5-bromo-2-((4-(4-(4-((7-(2-(2,6-dioxopiperidin-3-yl)-1-oxoisoindolin-5-yl)-7-azaspiro[3.5]nonan-2-yl)methyl)piperazin-1-yl)piperidin-1-yl)-5-ethyl-2-methoxyphenyl)amino)pyrimidin-4-yl)amino)quinoxalin-5-yl)methanesulfonamide], for which the GI50 with BaF3_DTC was 12.1 nM; in the assay with A431 it was greater than 1000 nM; with BaF3_ASV, 47.5 nM. In addition, the DC50 in assay [1] was determined as 14.5 nM.
